# Assay results taken from article PMC2754045 (Biochemistry, 2009).
# Where two headings read alike, the source gives them in different places. Marks after values point to notes of the source that are not given here. Bridges are numbered along the chain shown (N, C = ends). Where no end group is shown, it is not given here.
# What was measured:
# [1] = cited from earlier work
# DmTRΔ8 [2] = biological target: T1, DmTRΔ8 (Drosophila melanogaster, UniProt P91938); assay: Substrate reduction by truncated Drosophila TR; format: biochemical
# mTRΔ8 [3] = biological target: T2, mTRΔ8 (Mus musculus, UniProt Q9JLT4); assay: Substrate reduction by truncated mammalian TR; format: biochemical; settings: for pH optimum of substrate reduction: truncated Δ8 enzyme; for Reduction by the truncated enzyme (in words): direct reduction by the N-terminal reaction center
# DmTR-SCCS = DmTR-SCCS (Drosophila melanogaster, UniProt P91938); assay: Substrate reduction by full-length Drosophila TR
# mTR-GCUG [4] = biological target: T3, mTR-GCUG (Mus musculus, UniProt Q9JLT4); assay: Substrate reduction by full-length wild type mammalian TR
# mTR-GCUG [5] = biological target: T3, mTR-GCUG; assay: Inhibition of TR by gold compounds; format: biochemical; settings: full-length wild type (Sec) enzyme, 4 nM enzyme, 3 mM DTNB, pH 7.4
# mTRΔ8 [6] = biological target: T2, mTRΔ8; assay: Inhibition of TR by gold compounds; format: biochemical; settings: truncated enzyme missing C-terminal tail, 2 nM enzyme, 3 mM DTNB, pH 7.4
# mTR-GCCG = mTR-GCCG (Mus musculus, UniProt Q9JLT4); format: biochemical; settings: full-length enzyme without Sec (Cys2 mutant), 4 nM enzyme, 3 mM DTNB, pH 7.4
# mTRΔ8 [7] = biological target: T2, mTRΔ8; settings: pH 7.0; cited from earlier work
# DmTRΔ8 [8] = biological target: T1, DmTRΔ8; settings: pH 7.0; cited from earlier work
# T1 sequence (P91938 1-483 isoform P91938-2 limits assumed): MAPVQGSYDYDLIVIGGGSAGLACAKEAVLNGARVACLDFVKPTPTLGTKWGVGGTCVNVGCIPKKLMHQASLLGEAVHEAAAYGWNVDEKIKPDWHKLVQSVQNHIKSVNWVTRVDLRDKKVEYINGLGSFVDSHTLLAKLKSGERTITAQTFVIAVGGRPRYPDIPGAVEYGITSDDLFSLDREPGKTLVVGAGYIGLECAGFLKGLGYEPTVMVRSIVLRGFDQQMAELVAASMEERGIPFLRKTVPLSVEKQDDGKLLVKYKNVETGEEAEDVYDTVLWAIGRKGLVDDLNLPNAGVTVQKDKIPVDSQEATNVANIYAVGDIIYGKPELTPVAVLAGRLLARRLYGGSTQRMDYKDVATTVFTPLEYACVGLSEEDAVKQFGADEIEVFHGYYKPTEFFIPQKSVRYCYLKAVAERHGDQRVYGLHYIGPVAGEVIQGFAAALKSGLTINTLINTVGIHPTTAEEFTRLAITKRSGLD
# Chain of DmTR-SCCS (P91938 1-491 isoform P91938-2): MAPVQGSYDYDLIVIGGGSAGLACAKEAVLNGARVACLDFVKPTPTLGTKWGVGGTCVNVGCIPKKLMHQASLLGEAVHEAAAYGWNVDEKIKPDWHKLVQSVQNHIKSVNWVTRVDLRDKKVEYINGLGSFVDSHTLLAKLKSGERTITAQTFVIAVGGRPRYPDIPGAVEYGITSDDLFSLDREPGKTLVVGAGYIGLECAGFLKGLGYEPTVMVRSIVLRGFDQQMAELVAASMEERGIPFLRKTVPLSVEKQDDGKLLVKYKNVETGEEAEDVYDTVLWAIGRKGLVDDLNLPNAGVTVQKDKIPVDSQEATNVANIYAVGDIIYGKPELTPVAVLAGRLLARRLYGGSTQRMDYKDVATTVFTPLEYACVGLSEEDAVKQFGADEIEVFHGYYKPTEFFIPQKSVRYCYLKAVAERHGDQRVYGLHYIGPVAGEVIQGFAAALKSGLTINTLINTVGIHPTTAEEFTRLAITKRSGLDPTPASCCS
compound,measurement,setting,value
"N[C@@H](CCC(=O)N[C@@H](CSN=O)C(=O)NCC(=O)O)C(=O)O [GSNO, S-nitrosoglutathione]",Leaving Group pKa,[1]; HNO in GSNO,4.7
"O=C(O)c1cc(SSc2ccc([N+](=O)[O-])c(C(=O)O)c2)ccc1[N+](=O)[O-] [DTNB, 5,5′dithio-bis(2-nitrobenzoic acid), reference compound]",Activity at 5 mM Substrate,DmTRΔ8 [2]; pH 7.0,519 mol NADPH/min/mol TR
same,Activity at 5 mM Substrate,mTRΔ8 [3]; pH 7.0,2430 mol NADPH/min/mol TR
"O=C(O)CCCC[C@@H]1CCSS1 [Lipoic Acid, lipoic acid]",Turnover faster in comparison to DTT(ox),"DmTRΔ8 [2]; 5 mM substrate, pH 7.0",190 fold
same,Activity at 5 mM Substrate,DmTRΔ8 [2]; pH 7.0,20.8 mol NADPH/min/mol TR
same,pH optimum of substrate reduction,DmTRΔ8 [2]; truncated DmTRΔ8,~7.5
same,pH optimum of substrate reduction,DmTR-SCCS; full-length DmTR,~7.5
same,pH optimum of substrate reduction,mTR-GCUG [4]; full-length enzyme,~7.5
same,kcat increase compared to the WT enzyme at pH 7.0,mTRΔ8 [3]; mTRΔ8 at pH 6.1,~3.6 fold
same,Activity at 5 mM Substrate,mTRΔ8 [3]; pH 6.1,102 mol NADPH/min/mol TR
same,Activity at 5 mM Substrate,mTRΔ8 [3]; pH 7.0,87.7 mol NADPH/min/mol TR
same,pH optimum of substrate reduction,mTRΔ8 [3],6.1
CC(=O)OC[C@H]1O[C@@H]([S-])[C@H](OC(C)=O)[C@@H](OC(C)=O)[C@@H]1OC(C)=O.CCP(CC)CC.[Au+] [auranofin],IC50,mTR-GCUG [5],0.075 µM
same,IC50,mTRΔ8 [6],0.85 µM
OC[C@H]1O[C@H]([S-])[C@H](O)[C@@H](O)[C@@H]1O.[Au+] [aurothioglucose],IC50,mTR-GCUG [5],0.083 µM
same,IC50,mTRΔ8 [6],0.025 µM
same,IC50,mTR-GCCG,0.142 µM
"O[C@@H]1CSSC[C@H]1O (relative stereo) [DTT(ox), trans-4,5-dihydroxy-1,2-dithiane]",Activity at 5 mM Substrate,DmTRΔ8 [2]; pH 7.0,0.109 mol NADPH/min/mol TR
same,Leaving Group pKa,[1],9.2 ^e
same,Activity at 5 mM Substrate,mTRΔ8 [3]; pH 7.0,0.234 mol NADPH/min/mol TR
O=S(O)O [sulfite],Activity as substrate (in words),"mTR-GCUG [4]; TR form not stated, data not shown",unable to detect activity
PTVTGCCG(ox): peptide containing a Cys1-Cys2 vicinal disulfide bond (8-membered ring) (disulfide 6-7),Activity at 5 mM Substrate,mTRΔ8 [7],0.153 mol NADPH/min/mol TR
NC(=O)CCCCC1CCSS1 (centres unmarked) [lipoamide],Higher activity in presence of 50 mM acetate,mTRΔ8 [3]; pH 6.1,23.6%
same,Higher activity in presence of 50 mM acetate,mTRΔ8 [3]; pH 7.0,17.5%
same,Drop in Km compared to lipoic acid,mTRΔ8 [3]; truncated enzyme,~3 fold
same,pH optimum of substrate reduction,mTRΔ8 [3],~ 8.5
PTPASCCS(ox): Cys1-Cys2 vicinal disulfide peptide substrate of DmTR (disulfide 6-7),Activity at 5 mM Substrate,DmTRΔ8 [8],233 mol NADPH/min/mol TR
N[C@@H](C[Se][Se]C[C@H](N)C(=O)O)C(=O)O [selenocystine],Difference in activities between the mammalian enzyme and DmTR,"DmTR-SCCS; pH 7.0, 91 μM substrate",~ 3 fold
same,Reduction by the truncated enzyme (in words),mTRΔ8 [3],cannot directly reduce
same,pH optimum of substrate reduction,mTRΔ8 [3],~8.0
"O=[Se]([O-])[O-].[Na+].[Na+] [selenite, sodium selenite]",Activity lower than the WT enzyme,"mTRΔ8 [3]; mTRΔ8 versus WT, pH 7.0",6 fold
same,pH optimum of substrate reduction,mTRΔ8 [3],~6.0
N[C@@H](CSSC[C@H](N)C(=O)O)C(=O)O [cystine],Reduction by the WT enzyme (in words),mTR-GCUG [4],cannot be reduced
same,Leaving Group pKa,[1]; thiolate,~ 8.3
same,Reduction by the truncated enzyme (in words),mTRΔ8 [3],could not be reduced
